# Test system: SARS-CoV-2-infected rhesus macaques
# Assay: SARS-CoV-2-infected rhesus macaques, late-stage SSK1 treatment (i.v. once a day 22 to 28 dpi)
# Assay type: in vivo
# Protocol: To evaluate the therapeutic effect of SSK1 on the recovery period of SARS-CoV-2 infection, we used nine rhesus macaques of three different ages as reported before (Lu et al., 2020). All the animals were inoculated with total 4.75 ml of 10^6 pfu/ml SARS-CoV-2 intratracheally (4.00 ml), intranasally (0.50 ml) and on conjunctiva (0.25 ml). The nine rhesus macaques were divided into three groups according to the treatments, which included vehicle (DMSO), low dosage (0.5 mg/kg) and high dosage (2.0 mg/kg) of SSK1, respectively. Each group randomly selected one young, one adult and one old monkey. The final grouping is presented as following: the vehicle-treated group, RM1 (young), RM2 (adult) and RM3 (old); 0.5 mg/kg SSK1-treated group, RM4 (young), RM5 (adult) and RM6 (old); 2.0 mg/kg SSK1-treated group, RM7 (young), RM8 (adult) and RM9 (old). […] For each group, vehicle (DMSO), low dosage SSK1 (0.5 mg/kg) and high dosage SSK1 (2.0 mg/kg) were administrated intravenously (i.v.) once a day from 22 to 28 dpi. Animals were anesthetized and clinical exams were performed daily. We recorded the body weight, anal temperature on each examination day and collected blood samples for hematology analysis as well as swabs form nasal, throat and rectal for virus quantitative detection. The monkeys were euthanized on 34, 35 and 36 dpi. We collected the bronchoalveolar lavage fluid (BALF) with 10 ml PBS (Gibco, Cat #21-040-CVC) and recorded the pathological changes of all organs. Tissue samples collected from all organs and the BALF were further analyzed.
# 100 mg/ml SSK1 dissolved in DMSO (Life Science, Cat #1087C114) was mixed in 95% PBS (Gibco, Cat #21-040-CVC), 5% Tween-80 (BioFroxx, Cat #1716) and administrated intravenously (i.v.) at the dosage of 0.5 mg/kg or 2.0 mg/kg to monkeys at the indicated time point (the injection finished within 5-10 minutes). DMSO mixed in 95% PBS (Gibco, Cat #21-040-CVC), 5% Tween-80 (BioFroxx, Cat #1716) was intravenously (i.v.) injected as vehicle.
# The blood samples were collected from saphenous vein of hind limb of anaesthetized monkeys using 5 ml blood collection tube containing sodium citrate anti-coagulant for further analysis. For Complete Blood Count (CBC), Auto Hematology Analyzer (BC-5000 Vet, Mindray, China) was used. The white blood cells-related numbers and percentages of Neutrophil (Neu), Lymphocyte (Lym), Monocyte (Mon), Eosinophil (Eos), Basophil (Bas), and platelet-related items, platelet count (PLT), mean platelet volume (MPV), platelet distribution width (PDW), plateletcrit (PCT) were analyzed. For serum biochemical analysis, the blood was clotted for 30 min at 4° C. and centrifugated at 3,000×rpm for 15 min to obtain serum. The serum was used to analysis the alanine transaminase (ALT), aspartate transaminase (AST), alkaline phosphatase (ALP), uric acid (UA) and creatinine (CRE-E) by Chemistry Analyzer (Mindray, BS-350E).
# The serum and BALF samples were collected for analysis of cytokine and chemokine. Concentration of granulocyte colony-stimulating factor (G-CSF), granulocyte-macrophage colony-stimulating factor (GM-CSF), interferon (IFN)-γ, interleukin (IL)-1 receptor antagonist, IL-1β, IL-2, IL-4, IL-5, IL-6, IL-8, IL-10, IL-12/23 (p40), IL-13, IL-15, IL-17, IL-18, monocyte chemotactic protein (MCP)-1, macrophage inflammatory protein (MIP)-1α, MIP-1β, soluble CD40-ligand (sCD40L), transforming growth factor (TGF)-α, tumor necrosis factor (TNF)-α, vascular endothelial growth factor (VEGF) were determined using the Non-Human Primate Cytokine MILLIPLEX map 23-plex kit (Millipore, Cat #PRCYTOMAG-40K) according to the manufacturer's instructions.
# Autopsies of the rhesus macaques were performed according to a standard protocol. After the dissection, the major organs were grossly examined. The lung tissues were harvested, fixed in 10% neutral-buffered formalin solution, embedded in paraffin and 2 μm tissue sections were prepared. […]
compound,measurement,setting,value
CC(=O)OCC1O[C@@H](Oc2ccc(COC(=O)Nc3ccn([C@@H]4O[C@H](CO)C(O)C4(F)F)c(=O)n3)cc2[N+](=O)[O-])C(OC(C)=O)C(OC(C)=O)[C@H]1OC(C)=O (some centres unmarked) [SSK1],Body weight change (32 dpi vs 22 dpi %),"RM4 young 1-year, 0.5 mg/kg",+25.00%
same,Body weight change (32 dpi vs 22 dpi %),"RM5 adult 5-year, 0.5 mg/kg",−3.45%
same,Body weight change (32 dpi vs 22 dpi %),"RM6 old 17-year, 0.5 mg/kg",−1.25%
same,Body weight change (32 dpi vs 22 dpi %),"RM7 young 1-year, 2.0 mg/kg",+12.50%
same,Body weight change (32 dpi vs 22 dpi %),"RM8 adult 5-year, 2.0 mg/kg",+9.68%
same,Body weight change (32 dpi vs 22 dpi %),"RM9 old 18-year, 2.0 mg/kg",+1.82%
same,Body weight loss,"SSK1 0.5 or 2.0 mg/kg, 22 to 32 dpi",effectively prevented body weight loss
same,Pulmonary histology assessment (histologic lesions),SSK1-treated animals vs vehicle,reduction in histologic lesions
same,"Diseased phenotype of lung sections (thickened alveolar septum, edema, hemorrhage; H&E staining)",SSK1-treated group vs vehicle,greatly improved
same,"Inflammatory cytokines in blood including IL-6, IL-8, IL-10, IL-15, TGF-α and MCP1","SSK1-treated old monkeys, especially at 2 mg/kg",reduced at 28 dpi compared with 21 dpi
same,Serum level of IL-18,all high-dosage (2.0 mg/kg) SSK1-treated monkeys,increased level
same,New lung lesions at necropsy,all six SSK1-treated monkeys,only found one exhibiting new lung lesions
same,Macrophage infiltration in lung (CD68 immunohistochemistry),"especially at high dosages, in the elderly group",significantly reduced macrophage infiltration
same,Adverse effects,treated monkeys,did not observe any adverse effects

# From US12576155B2, “Senolytic and antiinflammatory prodrugs and methods of use thereof” (priority 2019, dated 2026)
